The assay relates to postmenopausal women. The assay can be described thus: Self-assessment questionnaire (subjective vaginal health questionnaire) in postmenopausal women taking the estrogen agonist/antagonist. The assay is classed as in vivo, human. Conditions: self-reported by postmenopausal women taking the compound. The procedure: The subject self-assessment of vaginal health is performed with a subjective vaginal health questionnaire. Typically, the questionnaire is performed in private and the results kept confidential. The questionnaire may include an envelope that is specially encoded to later identify the treatment that the subject is undergoing. An additional question may be added in subsequent questionnaires following administration of the baseline questionnaire, which question would ask: “Have you had any positive or negative vaginal changes since you have been taking the study medication?” This question may be coupled to a multiple-point ratings scale ranging from “mostly positive changes,” to “moderately positive changes,” to “mildly positive changes,” to “no changes,” to “mildly negative changes,” to “moderately negative changes,” to “mostly negative changes.”

For `O=C(O)C(O)C(O)C(=O)O.Oc1ccc2c(c1)CC[C@H](c1ccccc1)[C@@H]2c1ccc(OCCN2CCCC2)cc1` [(−)-cis-6-phenyl-5-[4-(2-pyrrolidin-1-yl-ethoxy)-phenyl]-5,6,7,8-tetrahydro-naphthalene-2-ol, D-tartrate salt], the “frequency of sexual intercourse” value is listed as “increased frequency”, the intensity of orgasms result is given as “increased intensity” and the number of orgasms entry is “increased number”.

The record behind these values is patent publication US20030125319A1, “Methods for assessing, improving, or maintaining urogenital health in postmenopausal women” (priority 2000, published 2003).
